Measurements taken from ChEMBL document CHEMBL1201862, “PubChem BioAssay data set” (2004).
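Test compounds were applied to cells in 96-well plates for 48 hours at 5 doses. Abbreviation: GI50, concentration required for 50% inhibition of growth.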 The source made the active and inactive calls. No stated cut-off is given here; in the data, active = GI50 up to about 1.1 µM and inactive = higher.

Tests used:
Assay in all cases: NCI anticancer screen, dose series, 48 h
ACHN = test system: ACHN
CCRF-CEM = test system: CCRF-CEM
EKVX = test system: EKVX
HL-60 = test system: HL-60
HOP-92 = test system: HOP-92
HT-29 = test system: HT-29
IGROV-1 = test system: IGROV-1
K562 = test system: K562
LOX IMVI = test system: LOX IMVI
NCI-H460 = test system: NCI-H460
SF-268 = test system: SF-268
SF-539 = test system: SF-539
SK-MEL-28 = test system: SK-MEL-28
SK-MEL-2 = test system: SK-MEL-2
SK-MEL-5 = test system: SK-MEL-5
SNB-19 = test system: SNB-19
U-251 = test system: U-251
UACC-257 = test system: UACC-257
UACC-62 = test system: UACC-62
NCI/ADR-RES = test system: NCI/ADR-RES

Measured: GI50

CC(=O)O[C@H]1C=CC(=O)C(C)CC1C (some centres not stated)
inactive: ACHN > 100 µM | CCRF-CEM 60.1 µM | EKVX > 100 µM | HL-60 64.9 µM | HOP-92 > 100 µM | HT-29 > 100 µM | IGROV-1 > 100 µM | K562 > 100 µM | LOX IMVI 45.8 µM | NCI-H460 > 100 µM | SF-268 > 100 µM | SF-539 > 100 µM | SK-MEL-28 > 100 µM | SK-MEL-2 > 100 µM | SK-MEL-5 > 100 µM | SNB-19 > 100 µM | U-251 > 100 µM | UACC-257 > 100 µM | UACC-62 > 100 µM

Cn1nc2ccc3nccc(N(CCO)CCO)c3c2n1
inactive: ACHN > 100 µM | CCRF-CEM > 100 µM | EKVX > 100 µM | HL-60 > 100 µM | HOP-92 > 100 µM | HT-29 > 100 µM | IGROV-1 > 100 µM | K562 > 100 µM | LOX IMVI > 100 µM | NCI-H460 > 100 µM | SF-268 > 100 µM | SF-539 > 100 µM | SK-MEL-28 > 100 µM | SK-MEL-2 > 100 µM | SK-MEL-5 > 100 µM | SNB-19 > 100 µM | U-251 > 100 µM | UACC-257 > 100 µM | UACC-62 > 100 µM

COc1ccccc1CC(C)N (configuration not stated)
inactive: ACHN > 100 µM | CCRF-CEM > 100 µM | EKVX > 100 µM | HL-60 > 100 µM | HOP-92 > 100 µM | HT-29 > 100 µM | IGROV-1 > 100 µM | K562 > 100 µM | LOX IMVI > 100 µM | NCI-H460 > 100 µM | SF-268 > 100 µM | SF-539 > 100 µM | SK-MEL-28 > 100 µM | SK-MEL-2 > 100 µM | SK-MEL-5 > 100 µM | SNB-19 > 100 µM | U-251 > 100 µM | UACC-257 > 100 µM | UACC-62 > 100 µM

O=C(NCCCOC(=O)CCCCCCCCC(=O)OCCCNC(=O)NC(=O)c1c[nH]c(=O)[nH]c1=O)NC(=O)c1c[nH]c(=O)[nH]c1=O
inactive: ACHN > 100 µM | CCRF-CEM > 100 µM | EKVX > 100 µM | HL-60 > 100 µM | HOP-92 > 100 µM | IGROV-1 > 100 µM | K562 > 100 µM | LOX IMVI > 100 µM | NCI-H460 > 100 µM | SF-268 > 100 µM | SF-539 > 100 µM | SK-MEL-28 > 100 µM | SK-MEL-2 > 100 µM | SK-MEL-5 > 100 µM | SNB-19 > 100 µM | U-251 > 100 µM | UACC-257 > 100 µM | UACC-62 > 100 µM

Nc1ccc(C2NC(=O)Cc3c2ccc2ccccc32)cc1 (configuration not stated)
inactive: ACHN 58.1 µM | CCRF-CEM 80 µM | EKVX 84.7 µM | HL-60 35.2 µM | HOP-92 > 100 µM | HT-29 > 100 µM | IGROV-1 > 100 µM | K562 > 100 µM | LOX IMVI > 100 µM | NCI-H460 71.1 µM | SF-268 89.5 µM | SF-539 90.6 µM | SK-MEL-28 > 100 µM | SK-MEL-2 > 100 µM | SK-MEL-5 61.8 µM | SNB-19 > 100 µM | U-251 > 100 µM | UACC-257 > 100 µM | UACC-62 66.1 µM

Nc1nc(O)c2ncn(C3OC(CO)C(O)C3O)c2n1 (configuration not stated)
inactive: CCRF-CEM 23.9 µM | EKVX 10.2 µM | HL-60 37.6 µM | HT-29 10.9 µM | IGROV-1 > 77.4 µM | K562 81.7 µM | LOX IMVI 52.5 µM | NCI/ADR-RES 18.4 µM | SF-268 74.8 µM | SF-539 13.8 µM | SK-MEL-28 90.8 µM | SK-MEL-2 71.1 µM | SK-MEL-5 53.6 µM | U-251 16.1 µM | UACC-62 13.3 µM

FC(F)(F)c1ccc2c(c1)N(CCCNCCN1CCOCC1)c1ccccc1S2
inactive: ACHN 12.3 µM | CCRF-CEM 12.6 µM | EKVX 15 µM | HL-60 6.07 µM | HOP-92 3.4 µM | HT-29 3.24 µM | IGROV-1 15.8 µM | K562 2.99 µM | LOX IMVI 8.85 µM | NCI-H460 11.2 µM | SF-268 15.9 µM | SF-539 4.7 µM | SK-MEL-28 5.2 µM | SK-MEL-2 3.66 µM | SK-MEL-5 3.8 µM | SNB-19 16.1 µM | U-251 11.6 µM | UACC-257 10.9 µM | UACC-62 13.2 µM

CCC(C)[C@H]1C(=O)N=C(N)N1C(=O)OCc1ccccc1 (some centres not stated)
inactive: ACHN > 100 µM | EKVX > 100 µM | HL-60 > 100 µM | HT-29 > 100 µM | IGROV-1 > 100 µM | K562 > 100 µM | LOX IMVI > 100 µM | NCI-H460 > 100 µM | NCI/ADR-RES > 100 µM | SF-268 > 100 µM | SK-MEL-28 > 100 µM | SK-MEL-2 > 100 µM | SK-MEL-5 > 100 µM | SNB-19 > 100 µM | U-251 > 100 µM | UACC-257 > 100 µM | UACC-62 > 100 µM

CCOC(=O)C(=C=C=C(c1ccccc1)c1ccccc1)C(=O)OCC
inactive: ACHN 21.4 µM | CCRF-CEM 3.52 µM | EKVX 26.7 µM | HL-60 15.4 µM | HOP-92 15.1 µM | HT-29 19.4 µM | IGROV-1 18.1 µM | K562 11.3 µM | LOX IMVI 17.1 µM | NCI-H460 22.8 µM | SF-268 25.8 µM | SF-539 18.4 µM | SK-MEL-28 17.4 µM | SK-MEL-2 16.6 µM | SK-MEL-5 > 10 µM | SNB-19 21.5 µM | U-251 17.3 µM | UACC-257 16.8 µM | UACC-62 18.5 µM

COC(=O)C1CCCN1C(=O)OC(C)(C)C (configuration not stated)
inactive: ACHN > 100 µM | CCRF-CEM > 100 µM | EKVX > 100 µM | HT-29 > 100 µM | IGROV-1 > 100 µM | K562 > 100 µM | LOX IMVI > 100 µM | NCI-H460 > 100 µM | NCI/ADR-RES > 100 µM | SF-268 65.3 µM | SK-MEL-28 > 100 µM | SK-MEL-2 > 100 µM | SK-MEL-5 > 100 µM | SNB-19 > 100 µM | U-251 > 100 µM | UACC-257 > 100 µM | UACC-62 > 100 µM

O=C(Nc1ccc(F)cc1)c1cc2c(cc1Cl)Sc1nccn1S2(=O)=O
inactive: ACHN 63.1 µM | CCRF-CEM > 100 µM | EKVX > 100 µM | HT-29 > 100 µM | IGROV-1 > 100 µM | K562 > 100 µM | LOX IMVI > 100 µM | NCI-H460 33.5 µM | NCI/ADR-RES > 100 µM | SF-268 37.3 µM | SF-539 37 µM | SK-MEL-28 88.5 µM | SK-MEL-2 > 100 µM | SK-MEL-5 14.9 µM | SNB-19 40.1 µM | U-251 16.3 µM
